One data set deals with Hep 3B2. The data set is described as follows: Inhibition of hepcidin mRNA expression in human Hep3B cells at 250 uM after 30 mins by qRT-PCR analysis. In kind it is functional. Particulars: 0.5 h. (In general: Real-time PCR tracks product formation cycle by cycle.)
Data set [1] deals with AMP-activated protein kinase, AMPK (Homo sapiens) (UniProt P54646+O43741+P54619+Q9UGJ0+Q9Y478+Q13131+Q9UGI9). Nature of the data set: Inhibition of AMPK-mediated hepcidin mRNA expression in BMP2-stimulated human Hep3B cells at 250 uM treated 30 mins before BMP2 challenge measured after 16 hrs by qRT-PCR analysis. The data set is classed as cell-based. Particulars: Hep 3B2.

Data set [2] is filed under the species Danio rerio. The data set is described as follows: Inhibition of AMPK in zebrafish assessed as embryonic axis dorsalization at 20 uM treated at 3 hrs post-fertilization measured at 48 hrs. Also on record: scale not given: the % may be the effect or the level left.
For data set [3], the species on record is Danio rerio. Nature of the data set: Inhibition of AMPK in zebrafish assessed as embryonic axis dorsalization at 400 uM treated at 3 hrs post-fertilization measured at 48 hrs. Also on record: scale not given: the % may be the effect or the level left.
The species entered for data set [4] is Danio rerio. Nature of the data set: Toxicity in zebrafish assessed as survivability at 4 to 400 uM treated at 3 hrs post-fertilization measured at 48 hrs. Particulars: in vivo. In kind it is organism-based.
The species named for data set [5] is Danio rerio. The data set is described as follows: Inhibition of AMPK in zebrafish assessed as embryonic axis dorsalization at 200 uM treated at 3 hrs post-fertilization measured at 48 hrs. The arrangement: scale not given: the % may be the effect or the level left.
The species named for data set [6] is Danio rerio. The data set is described as follows: Inhibition of AMPK in zebrafish assessed as embryonic axis dorsalization at 100 uM treated at 3 hrs post-fertilization measured at 48 hrs. The arrangement: scale not given: the % may be the effect or the level left.
The species named for data set [7] is Danio rerio. The data set is described as follows: Inhibition of AMPK in zebrafish assessed as embryonic axis dorsalization at 4 uM treated at 3 hrs post-fertilization measured at 48 hrs. The arrangement: scale not given: the % may be the effect or the level left.
Data set [8] is filed under the species Danio rerio. The data set is described as follows: Inhibition of AMPK in zebrafish assessed as embryonic axis dorsalization at 40 uM treated at 3 hrs post-fertilization measured at 48 hrs. The arrangement: scale not given: the % may be the effect or the level left.

Active and inactive are the calls of the source. The calls are words filed in the database; no cut-off is given here.

Usually inhibition stands for the change of the read-out against control, counted positive when it falls.

As for `Nc1ncnc2c1ncn2[C@@H]1O[C@H](CO)[C@@H](O)[C@@H]1O` [VIDARABINE], the inhibition at 250 µM in the data set on Hep 3B2 came out at 40%. Besides, the inhibition result in data set [1] is “inactive”.

Turning to `C=C1C(=O)O[C@H](CCCCCCCC)[C@H]1C(=O)O`, the Activity in the data set filed under Danio rerio [2] was 0%; in the data set listed under Danio rerio [3] it was 0%; in the data set filed under Danio rerio [4] it was “Toxic”; in the data set listed under Danio rerio [5] it was 0%; in the data set filed under Danio rerio [6], 0%; in the data set filed under Danio rerio [7], 0%. In addition, the Activity in the data set filed under Danio rerio [8] came out at 0%.

The values are drawn from ChEMBL document CHEMBL1212693, “Dorsomorphin inhibits BMP signals required for embryogenesis and iron metabolism” (Nat Chem Biol, 2008).
